According to ChEMBL document CHEMBL1152498, “Minor structural differences of monomethine cyanine derivatives yield strong variation in their interactions with DNA, RNA as well as on their in vitro antiproliferative activity” (Bioorg Med Chem, 2009):
pIC50: −log10 of the molar value. Activity calls are given as the source filed them. No cut-off for these calls is given here.

Legend:
[1] = test system: Calf thymus DNA; assay: Binding affinity to calf thymus double stranded DNA at pH 7 by fluorometric titration method; assay type: nucleic-acid assay; details: Bos taurus
[2] = test system: Nucleic Acid; assay: Binding affinity to double stranded RNA at pH 7 by fluorometric titration method; assay type: nucleic-acid assay
[3] = test system: Nucleic Acid; assay: Binding affinity to poly A-poly U at pH 7 by fluorometric titration method; assay type: nucleic-acid assay
[4] = test system: Calf thymus DNA; assay: Binding affinity to calf thymus double helix DNA assessed as thermal denaturation-associated change in melting temperature at pH 7 by tangent method; assay type: nucleic-acid assay; details: Bos taurus
[5] = test system: Nucleic Acid; assay: Binding affinity to poly A-poly U assessed as thermal denaturation-associated change in melting temperature at pH 7 by tangent method; assay type: nucleic-acid assay
[6] = test system: Nucleic Acid; assay: Binding affinity to poly A single stranded RNA at pH 7 by fluorometric titration method; assay type: nucleic-acid assay
[7] = test system: Nucleic Acid; assay: Binding affinity to poly G single stranded RNA at pH 7 by fluorometric titration method; assay type: nucleic-acid assay
[8] = test system: Nucleic Acid; assay: Binding affinity to poly C single stranded RNA at pH 7 by fluorometric titration method; assay type: nucleic-acid assay
[9] = test system: Nucleic Acid; assay: Binding affinity to poly U single stranded RNA at pH 7 by fluorometric titration method; assay type: nucleic-acid assay
[10] = test system: SW-620; assay: Cytotoxicity against human SW620 cells after 72 hrs by MTT assay; assay type: functional, cell-based; details: SW-620, 72 h
[11] = test system: HT-29; assay: Cytotoxicity against human HT-29 cells after 72 hrs by MTT assay; assay type: functional, cell-based; details: HT-29, 72 h
[12] = test system: Caco-2; assay: Cytotoxicity against human Caco-2 cells after 72 hrs by MTT assay; assay type: functional, cell-based; details: Caco-2, 72 h
[13] = test system: HeLa; assay: Cytotoxicity against human HeLa cells after 72 hrs by MTT assay; assay type: functional, cell-based
[14] = test system: MIA PaCa-2; assay: Cytotoxicity against human MIAPaCa2 cells after 72 hrs by MTT assay; assay type: functional, cell-based; details: MIA PaCa-2, 72 h
[15] = Cytotoxicity against human Hep2 cells after 72 hrs by MTT assay; assay type: cell-based; details: HEp-2, 72 h
[16] = test system: NCI-H358; assay: Cytotoxicity against human NCI-H358 cells after 72 hrs by MTT assay; assay type: functional, cell-based; details: NCI-H358, 72 h
[17] = test system: K562; assay: Cytotoxicity against human K562 cells after 72 hrs by MTT assay; assay type: functional, cell-based; details: K562, 72 h
[18] = test system: Jurkat; assay: Cytotoxicity against human Jurkat cells after 72 hrs by MTT assay; assay type: functional, cell-based
[19] = test system: HuT78; assay: Cytotoxicity against human HUT78 cells after 72 hrs by MTT assay; assay type: functional, cell-based; details: HuT78, 72 h
[20] = Cytotoxicity against HAEC after 72 hrs by MTT assay; set-up: species or system Homo sapiens
[21] = Cytotoxicity against human lymphocytes after 72 hrs by MTT assay; assay type: cell-based; details: Lymphocyte
[22] = test system: HeLa; assay: Cytotoxicity against human HeLa cells at 0.1 uM after 60 mins by DAPI staining-based visible light microscopy; assay type: functional, cell-based
[23] = test system: Nucleic Acid; assay: Binding affinity to nuclear DNA in human HeLa cells at 0.1 uM after 60 mins by DAPI staining-based fluorescence microscopy; assay type: cell-based

| SMILES | log Ks [1] | Activity [2] | ΔTm [4] [°C] | ΔTm [5] [°C] | Activity [6] | log Ks [7] | log Ks [8] | log Ks [9] | pIC50 [10] | pIC50 [11] | pIC50 [12] | pIC50 [13] | pIC50 [14] | pIC50 [15] | pIC50 [16] | pIC50 [17] | pIC50 [18] | pIC50 [19] | pIC50 [20] | pIC50 [21] | also measured |
| --- | --- | --- | --- | --- | --- | --- | --- | --- | --- | --- | --- | --- | --- | --- | --- | --- | --- | --- | --- | --- | --- |
| COc1ccc2c(c1)SC1=N/C(=C\c3sc4ccccc4[n+]3C)C=C(C)N12.[O-][Cl+3]([O-])([O-])[O-] | 4.5 | Active | 3 | 0 | Active | > 6 | < 4 | < 4 | 6.70 | 6.30 | 6.10 | 6.30 | 7.22 | 6.30 | 6.22 | 9.00 | 7.00 | 8.00 | 5.48 | 7.00 | log Ks [3]: 4.2; Activity [22]: inactive; Activity [23]: inactive |
| CC1=C/C(=C/c2oc3ccccc3[n+]2C)C(C#N)=C2Sc3ccccc3N12.[O-][Cl+3]([O-])([O-])[O-] | 5.1 | Active | 4.1 | 19.5 | – | > 6 | < 4 | < 4 | 5.17 | 5.23 | 5.02 | 5.09 | 5.66 | 5.26 | 5.62 | 7.30 | 5.41 | 6.30 | 4.30 | 7.00 | log Ks [3]: 6.8; log Ks [6]: 6.2 |
| CC1=C/C(=C/c2sc3ccccc3[n+]2C)N=C2C=CC=CN12.[O-][Cl+3]([O-])([O-])[O-] | – | inactive | 1.9 | 10.4 | inactive | – | – | – | 5.15 | 5.28 | 5.00 | 5.00 | 5.74 | 5.44 | 5.70 | 7.05 | 5.89 | 6.70 | 5.02 | 6.22 | Activity [1]: inactive; Activity [7]: inactive; Activity [8]: inactive; Activity [9]: inactive |
| CC1=C/C(=C/c2sc3ccccc3[n+]2C)N=C2Sc3cc(OCCO)ccc3N12.[O-][Cl+3]([O-])([O-])[O-] | 4.8 | Active | 1.3 | 0 | Active | > 6 | < 4 | < 4 | 6.26 | 5.96 | < 4.00 | 4.10 | 6.29 | 6.03 | 5.68 | 7.22 | 6.05 | 6.30 | < 3.70 | 5.92 | log Ks [3]: 4.5 |

Second part, led by results:

| log Ks [1] | Activity [2] | ΔTm [4] [°C] | ΔTm [5] [°C] | Activity [6] | log Ks [7] | log Ks [8] | log Ks [9] | SMILES | pIC50 [10] | pIC50 [11] | pIC50 [12] | pIC50 [13] | pIC50 [14] | pIC50 [15] | pIC50 [16] | pIC50 [17] | pIC50 [18] | pIC50 [19] | pIC50 [20] | pIC50 [21] | also measured |
| --- | --- | --- | --- | --- | --- | --- | --- | --- | --- | --- | --- | --- | --- | --- | --- | --- | --- | --- | --- | --- | --- |
| 4.6 | Active | 1 | 0 | Active | > 6 | < 4 | < 4 | CC1=C/C(=C/c2oc3ccccc3[n+]2C)N=C2Sc3cc(Cl)ccc3N12.[O-][Cl+3]([O-])([O-])[O-] | 5.24 | 5.29 | 5.09 | 5.41 | 5.68 | 5.15 | 5.96 | 7.22 | 6.28 | 7.22 | 4.30 | 7.05 | log Ks [3]: 4.5 |
| 4.7 | Active | 4 | 0 | Active | > 6 | < 4 | < 4 | CCOc1ccc2c(c1)SC1=N/C(=C\c3oc4ccccc4[n+]3C)C=C(C)N12.[O-][Cl+3]([O-])([O-])[O-] | 7.00 | 6.22 | 6.10 | 5.70 | 7.00 | 6.30 | 7.00 | 9.00 | 7.05 | 7.30 | 6.00 | 8.00 | log Ks [3]: 4.5 |
| 4.6 | Active | 0.8 | 0 | Active | > 6 | < 4 | < 4 | CC1=C/C(=C/c2oc3ccccc3[n+]2C)N=C2Sc3cc(OCCO)ccc3N12.[O-][Cl+3]([O-])([O-])[O-] | 5.28 | 5.14 | 4.40 | 4.10 | 5.07 | 5.17 | 5.05 | 7.15 | 5.18 | 6.15 | 4.15 | 6.23 | log Ks [3]: 4.3 |
| 5 | Active | 2.7 | 0 | Active | > 6 | < 4 | < 4 | COc1ccc2c(c1)SC1=N/C(=C\c3oc4ccccc4[n+]3C)C=C(C)N12.[O-][Cl+3]([O-])([O-])[O-] | 6.22 | 6.30 | 6.00 | 5.68 | 6.30 | 6.15 | 6.10 | 9.00 | 6.30 | 7.00 | 5.96 | 7.40 | Activity [22]: inactive; Activity [23]: inactive |
